Biological target: 5-hydroxytryptamine receptor 2A (Homo sapiens, UniProt P28223)
Assay: Receptor Selection and Amplification (R-SAT) Assays: R-SAT's were generally performed with 50 ng/well of receptor and 20 ng/well of β-galactosidase plasmid DNA. All receptor constructs used were in the pSI mammalian expression vector (Promega Inc) as described previously. The 5-HT2A receptor gene was amplified by nested PCR (polymerase chain reaction) from brain cDNA using the …
Assay type: cell-based

5-hydroxytryptamine receptor 2A, sequence (P28223 whole entry): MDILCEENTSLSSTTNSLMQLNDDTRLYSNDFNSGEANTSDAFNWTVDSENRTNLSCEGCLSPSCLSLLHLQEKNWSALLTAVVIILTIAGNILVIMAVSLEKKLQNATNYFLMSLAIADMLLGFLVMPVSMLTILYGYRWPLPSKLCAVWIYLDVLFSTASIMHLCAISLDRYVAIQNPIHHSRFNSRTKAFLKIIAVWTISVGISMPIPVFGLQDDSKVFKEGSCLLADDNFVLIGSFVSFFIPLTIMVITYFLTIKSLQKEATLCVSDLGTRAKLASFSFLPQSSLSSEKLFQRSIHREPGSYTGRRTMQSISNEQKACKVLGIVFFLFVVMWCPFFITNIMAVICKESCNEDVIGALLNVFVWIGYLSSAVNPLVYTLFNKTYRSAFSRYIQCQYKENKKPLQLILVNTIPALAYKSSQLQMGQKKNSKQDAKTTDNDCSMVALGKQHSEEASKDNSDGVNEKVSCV

- Ki: 10 nM
SMILES: CC(C)Oc1ccc(CC(=O)N(Cc2ccc(F)cc2F)[C@@H]2CCN(C)C[C@@H]2F)cc1 (mixture of isomers)
